Numbers after ± are expanded uncertainties.
Experiments:
[1] = relative permittivity at various frequencies (dimensionless); xn = mol fraction of the nth substance listed; details: 99 kPa, Liquid, Frequency=2 MHz, Parallel plate capacitor
[2] = refractive index (Na D-line) (dimensionless); xn = mol fraction of the nth substance listed; details: 99 kPa, Liquid, Abbe refractometer

CCC(C)Cl (stereo unspecified) [2-chlorobutane] + CCCCCCC
Details	refractive index, 283.15 K	refractive index, 298.15 K	refractive index, 313.15 K	relative permittivity, 283.15 K	relative permittivity, 298.15 K	relative permittivity, 313.15 K
[1], x2 = 0	–	–	–	9.323 ± 0.093	8.652 ± 0.087	8.07 ± 0.081
[1], x2 = 0.0498	–	–	–	8.838 ± 0.088	8.22 ± 0.082	7.684 ± 0.077
[1], x2 = 0.101	–	–	–	8.296 ± 0.083	7.73 ± 0.077	7.247 ± 0.072
[1], x2 = 0.1985	–	–	–	7.191 ± 0.072	6.75 ± 0.068	6.373 ± 0.064
[1], x2 = 0.3008	–	–	–	6.131 ± 0.061	5.792 ± 0.058	5.51 ± 0.055
[1], x2 = 0.3994	–	–	–	5.252 ± 0.053	5 ± 0.05	4.774 ± 0.048
[1], x2 = 0.503	–	–	–	4.471 ± 0.045	4.283 ± 0.043	4.1 ± 0.041
[1], x2 = 0.6009	–	–	–	3.84 ± 0.038	3.698 ± 0.037	3.56 ± 0.036
[1], x2 = 0.7053	–	–	–	3.268 ± 0.033	3.165 ± 0.032	3.063 ± 0.031
[1], x2 = 0.8026	–	–	–	2.79 ± 0.028	2.731 ± 0.027	2.659 ± 0.027
[1], x2 = 0.9027	–	–	–	2.352 ± 0.024	2.309 ± 0.023	2.276 ± 0.023
[1], x2 = 0.9463	–	–	–	2.164 ± 0.022	2.133 ± 0.021	2.108 ± 0.021
[2], x2 = 0	1.40226 ± 0.00031	1.39404 ± 0.00031	1.38562 ± 0.00031	–	–	–
[2], x2 = 0.0483	1.40141 ± 0.00031	1.39319 ± 0.00031	1.3848 ± 0.00031	–	–	–
[2], x2 = 0.1024	1.40056 ± 0.00031	1.39238 ± 0.00031	1.38401 ± 0.00031	–	–	–
[2], x2 = 0.2021	1.39912 ± 0.00031	1.391 ± 0.00031	1.38268 ± 0.00031	–	–	–
[2], x2 = 0.303	1.39778 ± 0.00031	1.3897 ± 0.00031	1.38144 ± 0.00031	–	–	–
[2], x2 = 0.4031	1.3966 ± 0.00031	1.38859 ± 0.00031	1.38038 ± 0.00031	–	–	–
[2], x2 = 0.5066	1.39562 ± 0.00031	1.38765 ± 0.00031	1.37951 ± 0.00031	–	–	–
[2], x2 = 0.5998	1.39489 ± 0.00031	1.38699 ± 0.00031	1.3789 ± 0.00031	–	–	–
[2], x2 = 0.7051	1.39429 ± 0.00031	1.38642 ± 0.00031	1.37841 ± 0.00031	–	–	–
[2], x2 = 0.8055	1.39382 ± 0.00031	1.38603 ± 0.00031	1.37807 ± 0.00031	–	–	–
[2], x2 = 0.9123	1.39337 ± 0.00031	1.38563 ± 0.00031	1.37773 ± 0.00031	–	–	–
[2], x2 = 0.9433	1.39322 ± 0.00031	1.38549 ± 0.00031	1.37761 ± 0.00031	–	–	–

CC(C)CCl [1-chloro-2-methylpropane] + CCCCCCC
Details	refractive index, 283.15 K	refractive index, 298.15 K	refractive index, 313.15 K	relative permittivity, 283.15 K	relative permittivity, 298.15 K	relative permittivity, 313.15 K
[1], x2 = 0	–	–	–	7.472 ± 0.075	7.074 ± 0.071	6.657 ± 0.067
[1], x2 = 0.0467	–	–	–	7.151 ± 0.072	6.783 ± 0.068	6.395 ± 0.064
[1], x2 = 0.1011	–	–	–	6.755 ± 0.068	6.418 ± 0.064	6.062 ± 0.061
[1], x2 = 0.197	–	–	–	6.042 ± 0.06	5.749 ± 0.058	5.45 ± 0.055
[1], x2 = 0.297	–	–	–	5.32 ± 0.053	5.08 ± 0.051	4.828 ± 0.048
[1], x2 = 0.4028	–	–	–	4.619 ± 0.046	4.43 ± 0.044	4.232 ± 0.042
[1], x2 = 0.5045	–	–	–	4.028 ± 0.04	3.88 ± 0.039	3.725 ± 0.037
[1], x2 = 0.6012	–	–	–	3.537 ± 0.035	3.425 ± 0.034	3.3 ± 0.033
[1], x2 = 0.7002	–	–	–	3.094 ± 0.031	3.012 ± 0.03	2.918 ± 0.029
[1], x2 = 0.801	–	–	–	2.697 ± 0.027	2.636 ± 0.026	2.568 ± 0.026
[1], x2 = 0.9058	–	–	–	2.303 ± 0.023	2.262 ± 0.023	2.219 ± 0.022
[1], x2 = 0.9473	–	–	–	2.147 ± 0.021	2.114 ± 0.021	2.081 ± 0.021
[2], x2 = 0	1.40354 ± 0.00031	1.39529 ± 0.00031	1.38683 ± 0.00031	–	–	–
[2], x2 = 0.0485	1.40248 ± 0.00031	1.39425 ± 0.00031	1.38582 ± 0.00031	–	–	–
[2], x2 = 0.1009	1.40145 ± 0.00031	1.39325 ± 0.00031	1.38485 ± 0.00031	–	–	–
[2], x2 = 0.2046	1.39974 ± 0.00031	1.39161 ± 0.00031	1.38327 ± 0.00031	–	–	–
[2], x2 = 0.3065	1.3983 ± 0.00031	1.39022 ± 0.00031	1.38196 ± 0.00031	–	–	–
[2], x2 = 0.4028	1.39716 ± 0.00031	1.38914 ± 0.00031	1.38093 ± 0.00031	–	–	–
[2], x2 = 0.5039	1.3961 ± 0.00031	1.38814 ± 0.00031	1.37999 ± 0.00031	–	–	–
[2], x2 = 0.603	1.3952 ± 0.00031	1.38729 ± 0.00031	1.3792 ± 0.00031	–	–	–
[2], x2 = 0.7033	1.39445 ± 0.00031	1.3866 ± 0.00031	1.37858 ± 0.00031	–	–	–
[2], x2 = 0.8026	1.39381 ± 0.00031	1.38601 ± 0.00031	1.37804 ± 0.00031	–	–	–
[2], x2 = 0.9158	1.39326 ± 0.00031	1.38548 ± 0.00031	1.37758 ± 0.00031	–	–	–
[2], x2 = 0.9513	1.3931 ± 0.00031	1.38538 ± 0.00031	1.37749 ± 0.00031	–	–	–

CCCCCl [1-chlorobutane] + CCCCCCC
Details	refractive index, 283.15 K	refractive index, 298.15 K	refractive index, 313.15 K	relative permittivity, 283.15 K	relative permittivity, 298.15 K	relative permittivity, 313.15 K
[1], x2 = 0	–	–	–	7.552 ± 0.076	7.157 ± 0.072	6.757 ± 0.068
[1], x2 = 0.0484	–	–	–	7.201 ± 0.072	6.84 ± 0.068	6.47 ± 0.065
[1], x2 = 0.101	–	–	–	6.808 ± 0.068	6.475 ± 0.065	6.132 ± 0.061
[1], x2 = 0.1965	–	–	–	6.051 ± 0.061	5.77 ± 0.058	5.492 ± 0.055
[1], x2 = 0.2708	–	–	–	5.486 ± 0.055	5.243 ± 0.052	5.005 ± 0.05
[1], x2 = 0.4005	–	–	–	4.601 ± 0.046	4.417 ± 0.044	4.237 ± 0.042
[1], x2 = 0.5038	–	–	–	3.999 ± 0.04	3.855 ± 0.039	3.715 ± 0.037
[1], x2 = 0.5995	–	–	–	3.52 ± 0.035	3.404 ± 0.034	3.299 ± 0.033
[1], x2 = 0.6978	–	–	–	3.089 ± 0.031	3.001 ± 0.03	2.921 ± 0.029
[1], x2 = 0.805	–	–	–	2.665 ± 0.027	2.608 ± 0.026	2.545 ± 0.025
[1], x2 = 0.897	–	–	–	2.327 ± 0.023	2.287 ± 0.023	2.247 ± 0.022
[1], x2 = 0.9475	–	–	–	2.138 ± 0.021	2.112 ± 0.021	2.079 ± 0.021
[2], x2 = 0	1.4075 ± 0.00031	1.3995 ± 0.00031	1.39131 ± 0.00031	–	–	–
[2], x2 = 0.0503	1.40636 ± 0.00031	1.39837 ± 0.00031	1.39019 ± 0.00031	–	–	–
[2], x2 = 0.1023	1.40522 ± 0.00031	1.39724 ± 0.00031	1.38907 ± 0.00031	–	–	–
[2], x2 = 0.201	1.40318 ± 0.00031	1.39522 ± 0.00031	1.38708 ± 0.00031	–	–	–
[2], x2 = 0.3012	1.40132 ± 0.00031	1.39338 ± 0.00031	1.38527 ± 0.00031	–	–	–
[2], x2 = 0.4003	1.39966 ± 0.00031	1.39175 ± 0.00031	1.38367 ± 0.00031	–	–	–
[2], x2 = 0.4985	1.3982 ± 0.00031	1.39033 ± 0.00031	1.38227 ± 0.00031	–	–	–
[2], x2 = 0.5963	1.39694 ± 0.00031	1.38909 ± 0.00031	1.38108 ± 0.00031	–	–	–
[2], x2 = 0.7037	1.39573 ± 0.00031	1.38793 ± 0.00031	1.37996 ± 0.00031	–	–	–
[2], x2 = 0.82	1.39458 ± 0.00031	1.38682 ± 0.00031	1.3789 ± 0.00031	–	–	–
[2], x2 = 0.9094	1.39373 ± 0.00031	1.386 ± 0.00031	1.37811 ± 0.00031	–	–	–
[2], x2 = 0.949	1.39337 ± 0.00031	1.38565 ± 0.00031	1.37778 ± 0.00031	–	–	–
